Results on 8 compounds are retold here after US9416115B2, “Fused heterocyclic compounds as ion channel modulators” (Gilead Sciences, Inc., priority 2013, dated 2016).

For test [1], the target named is T1, wild-type human cardiac sodium channel, hNav1.5 (Homo sapiens, UniProt Q14524). Nature of the test: Late INa screening assay (QPatch whole cell patch clamp, Tefluthrin-induced late current). The class given is cell-based. To be noted: 1 uM; HEK293 hNav1.5; percent block of late INa. The method in brief: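 HEK293 cells stably expressing hNav1.5 without beta subunits were whole-cell patch clamped at 23-25 °C, stepping from −120 to −20 mV for 250 ms at 0.1 Hz. Late current (240–265 ms) was induced with 10 μM Tefluthrin, and compounds were added typically at 0.3 or 1 μM. Percent block was taken against 0 Na baseline with rundown correction.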
On the technique in general: The patch-clamp technique gives a direct electrical read-out from membranes.

Test [2] has as its target T1, wild-type human cardiac sodium channel, hNav1.5. As to the kind of experiment: Peak INa screening assay (tonic block and use-dependent block). The class given is cell-based. An outline of the steps:
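HEK293 cells stably expressing hNav1.5 (no beta subunits), automated whole-cell patch clamp at 23-25° C, 40 mM Na+ bath (choline substitution), pH 7.35. Compound at 1 or 3 μM, added twice then 200 s equilibration; tonic block by steps to −20 mV from −100 mV at 0.1 Hz, use-dependent block at pulse 50 of a 3 Hz train, rundown-corrected versus compound-free.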

Where [3] appears, read: tonic block of Peak INa, 0.1 Hz, holding -100 mV, read-out: Peak TB 3 uM.
[4] abbreviates: use-dependent block of Peak INa, 3 Hz, pulse 50, read-out: Peak UDB 3 Hz 3 uM.

Read-outs that look alike come from different tables or passages of the source. Bounds are passed on as bounds.

T1 sequence (Q14524 whole entry): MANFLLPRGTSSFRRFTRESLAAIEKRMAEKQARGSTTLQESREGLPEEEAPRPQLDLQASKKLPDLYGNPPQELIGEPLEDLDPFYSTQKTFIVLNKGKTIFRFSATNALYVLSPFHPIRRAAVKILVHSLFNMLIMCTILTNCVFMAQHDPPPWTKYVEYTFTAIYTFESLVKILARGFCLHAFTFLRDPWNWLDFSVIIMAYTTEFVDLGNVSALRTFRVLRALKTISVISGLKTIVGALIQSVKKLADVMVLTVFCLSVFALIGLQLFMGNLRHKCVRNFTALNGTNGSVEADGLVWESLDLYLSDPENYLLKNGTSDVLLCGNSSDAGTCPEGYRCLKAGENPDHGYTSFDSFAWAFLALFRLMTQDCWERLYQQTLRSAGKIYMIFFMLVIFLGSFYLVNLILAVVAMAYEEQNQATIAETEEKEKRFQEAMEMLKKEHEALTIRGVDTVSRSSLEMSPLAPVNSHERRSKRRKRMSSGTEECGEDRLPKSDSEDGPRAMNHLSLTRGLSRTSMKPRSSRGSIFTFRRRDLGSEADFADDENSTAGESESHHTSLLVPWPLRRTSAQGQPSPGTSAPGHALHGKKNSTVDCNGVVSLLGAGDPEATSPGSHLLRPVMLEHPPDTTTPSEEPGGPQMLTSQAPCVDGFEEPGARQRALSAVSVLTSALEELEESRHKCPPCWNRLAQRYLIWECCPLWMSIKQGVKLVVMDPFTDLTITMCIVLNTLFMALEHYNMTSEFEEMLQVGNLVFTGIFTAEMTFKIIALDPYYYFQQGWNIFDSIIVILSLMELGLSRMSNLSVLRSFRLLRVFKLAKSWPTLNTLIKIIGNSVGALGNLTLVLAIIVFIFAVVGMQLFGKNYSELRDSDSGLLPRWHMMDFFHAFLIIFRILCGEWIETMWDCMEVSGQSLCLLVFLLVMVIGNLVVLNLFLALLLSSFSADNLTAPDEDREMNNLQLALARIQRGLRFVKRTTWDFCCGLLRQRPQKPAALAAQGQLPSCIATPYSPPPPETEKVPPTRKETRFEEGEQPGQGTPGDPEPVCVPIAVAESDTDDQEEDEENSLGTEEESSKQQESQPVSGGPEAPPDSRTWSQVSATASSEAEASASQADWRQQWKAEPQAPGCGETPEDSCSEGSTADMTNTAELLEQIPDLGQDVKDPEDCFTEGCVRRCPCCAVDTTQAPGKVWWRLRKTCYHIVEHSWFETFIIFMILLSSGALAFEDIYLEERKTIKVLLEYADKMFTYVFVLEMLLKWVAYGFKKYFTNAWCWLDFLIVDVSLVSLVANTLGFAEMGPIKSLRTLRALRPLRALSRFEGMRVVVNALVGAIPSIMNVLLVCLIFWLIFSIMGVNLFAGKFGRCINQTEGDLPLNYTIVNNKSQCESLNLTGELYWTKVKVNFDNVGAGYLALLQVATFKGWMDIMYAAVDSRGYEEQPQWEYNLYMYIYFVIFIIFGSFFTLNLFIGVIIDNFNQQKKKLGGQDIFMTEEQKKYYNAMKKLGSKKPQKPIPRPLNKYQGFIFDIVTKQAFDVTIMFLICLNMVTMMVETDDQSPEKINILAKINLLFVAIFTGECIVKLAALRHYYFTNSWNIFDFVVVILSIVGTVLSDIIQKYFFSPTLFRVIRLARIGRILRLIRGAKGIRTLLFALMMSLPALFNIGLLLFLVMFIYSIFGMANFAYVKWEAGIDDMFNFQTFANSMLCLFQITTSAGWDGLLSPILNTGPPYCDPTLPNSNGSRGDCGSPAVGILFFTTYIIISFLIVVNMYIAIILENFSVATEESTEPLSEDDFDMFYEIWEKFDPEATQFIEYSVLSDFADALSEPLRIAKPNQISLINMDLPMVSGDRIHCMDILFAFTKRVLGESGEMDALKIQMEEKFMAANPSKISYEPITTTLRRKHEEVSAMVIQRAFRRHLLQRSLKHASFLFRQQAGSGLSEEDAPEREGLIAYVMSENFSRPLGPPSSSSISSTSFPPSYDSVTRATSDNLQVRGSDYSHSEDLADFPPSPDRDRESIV

On to `FC(F)(F)COc1ccc(-c2ccc3onc(OCc4ncccn4)c3c2)cn1` [Example 21, 3-(pyrimidin-2-ylmethoxy)-5-(6-(2,2,2-trifluoroethoxy)pyridin-3-yl)benzo[d]isoxazole], for which the inhibition at 1 µM in test [1] was 48.8%. Further, the inhibition at 3 µM in test [2] (setting [3]) is 13%; in test [2] (setting [4]), under 5%.

Take `FC(F)(F)Oc1ccc(-c2ccc3onc(OCCN4CCOCC4)c3c2)cc1` [Example 78, 3-(2-morpholinoethoxy)-5-(4-(trifluoromethoxy)phenyl)benzo[d]isoxazole]: the inhibition at 1 µM in test [1] came to 47.1%. Besides, the inhibition at 3 µM in test [2] (setting [3]) came to 38.7%; in test [2] (setting [4]) it was 19.5%.

In turn, `Fc1cc(C(F)(F)F)ccc1-c1cc2c(OCc3ncccn3)noc2cc1F` [Example 33, 6-fluoro-5-(2-fluoro-4-(trifluoromethyl)phenyl)-3-(pyrimidin-2-ylmethoxy)benzo[d]isoxazole] displayed an inhibition at 1 µM in test [1] of 35.5%. The inhibition at 3 µM in test [2] (setting [3]) stood at 20.9%; in test [2] (setting [4]), 5.1%.

Regarding `FC(F)(F)Oc1ccc(-c2ccc3onc(OCc4nccn4-c4ccccc4)c3c2)cc1` [Example 64, 3-((1-phenyl-1H-imidazol-2-yl)methoxy)-5-(4-(trifluoromethoxy)phenyl)benzo[d]isoxazole], the inhibition at 1 µM in test [1] worked out at 30.7%. Moreover, the inhibition at 3 µM was 10.1% in test [2] (setting [3]) and under 5% in test [2] (setting [4]).

Compound `O=C1CCCN1CCOc1noc2c(F)cc(-c3ccc(OC(F)(F)F)cc3)cc12` [Example 80, 1-(2-((7-fluoro-5-(4-(trifluoromethoxy)phenyl)benzo[d]isoxazol-3-yl)oxy)ethyl)pyrrolidin-2-one] gave an inhibition at 1 µM in test [1] of 35.6%. Besides, the inhibition at 3 µM in test [2] (setting [3]) stood at 17.3%; in test [2] (setting [4]), 13.7%.

Turning to `FC1(F)Oc2ccc(-c3ccc4onc(OCc5ncccn5)c4c3)cc2O1` [Example 30, 5-(2,2-difluorobenzo[d][1,3]dioxol-5-yl)-3-(pyrimidin-2-ylmethoxy)benzo[d]isoxazole], the inhibition at 1 µM in test [1] stood at 42.5%. Further, the inhibition at 3 µM was 15.2% in test [2] (setting [3]) and under 5% in test [2] (setting [4]).

For `FC(F)(F)Oc1ccc(-c2ccc3onc(OCCn4cnnc4)c3c2)cc1` [Example 63, 3-(2-(4H-1,2,4-triazol-4-yl)ethoxy)-5-(4-(trifluoromethoxy)phenyl)benzo[d]isoxazole], in test [1], the inhibition at 1 µM was 44.1%. The inhibition at 3 µM in test [2] (setting [3]) is 39%; in test [2] (setting [4]), 13.3%.

With `FC(F)(F)Oc1ccc(-c2ccc3onc(OCc4cn5ccccc5n4)c3c2)cc1` [Example 51, 3-(imidazo[1,2-a]pyridin-2-ylmethoxy)-5-(4-(trifluoromethoxy)phenyl)benzo[d]isoxazole], the inhibition at 1 µM in test [1] is 38.8%. Further, the results for the inhibition at 3 µM in test [2] (setting [3]) and in test [2] (setting [4]) were 12.3% and 7.7%, respectively.
